{"source": "patent US10975116B2", "about": "“Methods of treating and preventing gastrointestinal motility disorders using aminosterols” (Enterin, Inc., priority 2013, dated 2021)", "assay_type_in_all_cases": "in vivo, human", "key": {"[1]": {"test_system": "pancreatic adenocarcinoma", "experiment": "Oral squalamine in Stage 4b pancreatic cancer, single subject", "protocol": "A person presented with abdominal discomfort, weight loss, and malaise. After considerable medical consultations a diagnosis of pancreatic adenocarcinoma was made. The subject was treated with chemotherapy and experienced a severe adverse reaction, which included ascites and pleural effusion. […] In August 2013, the subject was evaluated for a clinical trial at TGEN in Arizona, but not admitted due to the extensive cancer evident in the pancreas, liver, and nodes.\nIn late August 2013, the subject was begun on 50 mg/day, then increased to 100 mg/day after a week. The subject began once monthly cycles of cisplatin and 5-FU. […] The overall level of performance of the individual continues to improve, but the ascites and pleural effusions persist. […] All concurrent chemotherapy has stopped. Squalamine treatment continues."}, "[2]": {"test_system": "Opioid induced constipation", "experiment": "Oral squalamine in opioid (codeine) induced constipation, single subject", "protocol": "A normal subject began dosing with 1 tab codeine 30 mg/acetaminophen 300 mg at 8 A on Day 1, and repeated on Day 2 and Day 3. Normal bowel movement frequency was 1 or more stools/day, normally formed. Prior to codeine on Day 1, subject passed a normal stool in the AM. No bowel movements from the start of dosing through the 8 A Day 3 dose. No cramping; some gas. Some sense of fullness on the evening of Day 2.\nAt 9:15 A subject was administered 200 mg cap of squalamine. […] No nausea. […] A second smaller stool was passed at 12:30. […] The rapid effect on colonic motility seems unlikely to have been a direct effect of squalamine on the colon, but perhaps a downstream consequence of enteric nervous system stimulation. On Day 4, 30 mg codeine. No squalamine dosing. 7 P passed a loose stool of normal volume."}, "[3]": {"test_system": "Parkinson's disease", "experiment": "Oral squalamine in Parkinson's disease with constipation, single subject", "protocol": "A person, in otherwise good health, presented with Parkinson's disease of about 5 yrs duration. They were severely constipated and suffered from frequent episodes of cramping. These GI symptoms were similar to that described in Parkinson's and could not be alleviated medically or through dietary adjustment. Their medications included 5 L-DOPA/DDC caps/day and 1-2 Requip before bedtime. Their neurological status at this time was as follows, as determined about 1 hour after an L-DOPA dosing, a time point when they appear to be repleted with dopamine: • Slow walking with shuffling . . . need to squat intermittently • Articulation poor . . . difficult to understand their speech . . . halting • Use of utensils while eating involved slow, awkward movements • Face seemed a bit mask like; unconsciously made chewing movements • Cognitive function (memory, wit) was less than observed 3 months prior • Balance was unsteady • Mood was depressed • Swallowing noted to be difficult at times • Chewing food was slow • Handwriting was small\nBegan oral dosing with 200 mg capsule of squalamine on Day 1. Capsule was taken in the AM before breakfast, along with L-DOPA. […] 200 mg cap on day 2 provoked a watery diarrhea at 2 hrs after dosing, but discharge subsided by day 3 dosing. On day 13, subsequent dosing was maintained at 200 mg every other day, with some minor degree of nausea. No watery discharge. At about Day 30 the subject was switched to 100 mg every other day, and remained on this regimen for about 9.5 months."}, "[4]": {"test_system": "gliobastoma", "experiment": "Oral squalamine in brain tumor, single subject", "protocol": "A person presented with headache and memory loss. […] The tumor was partially resected surgically, followed by local radiation. The subject was placed on a clinical protocol evaluating everolimus and temozolimide.\nIn mid October 2013, the subject began squalamine capsules with a 100 mg single dose. […] Squalamine treatment continues."}, "[5]": {"test_system": "Irritable Bowel Syndrome (IBS)", "experiment": "Oral squalamine in Irritable Bowel Syndrome, single subject", "description": "A person, in otherwise good health, was suffering from the “mixed” form of IBS since early childhood. The condition was characterized by a failure to feel “cleared” after the passage of a stool; occasional crampiness; abdominal bloating and a sense of “fullness.” The condition caused them to be “conscious of their bowels” throughout the day, and frequently interrupted their sleep. Attempts to relieve themself on the toilet would generally be ineffective, leaving them with the feeling of “still having to go.”\nOn day 1 the individual was administered a single 200 mg capsule of squalamine, orally, on an empty stomach with water. Within 2 hrs they experienced nausea, at 3 hrs they vomited, followed soon after by the passage of about 200 ml of clear discharge rectally. By 3.5 hrs the nausea had passed. They ate normally at lunch and dinner. […] Slept better than they had in many years. The first stool was passed on Day 4, was soft and passed easily, and then successively on Days 5, 6, 7, and 8. Beginning at Day 6, they began to experience the prior GI symptoms. By Day 8, their usual GI symptoms had returned.\nA second dosing trial was begun on Day 15, with a 50 mg capsule administered. […] Bowel movement was passed on Day 17. A 25 mg capsule was administered on Day 19. […] It was assumed that 50 mg dosed every other day was an optimum regimen. The individual remained on a dosing schedule of 50 mg orally every other day."}, "[6]": {"test_system": "Parkinson's-like syndrome", "experiment": "Oral squalamine in Parkinson's-like syndrome without GI disorders, single subject", "description": "The individual was a person. They were a psychiatrist specializing in addiction. Movement disorder began. Original diagnosis was multiple sclerosis. Presenting symptoms were depression and difficulty in controlling the action of sitting in chair. They would “plop” onto a sit without braking the movement. […] Treatment with L-DOPA caused some correction of the sitting difficulty, leading to the presumptive diagnosis of Parkinson's disease. Therapy continued with increasing doses of Sinemet, followed by addition of ropinirole. Deterioration continued (despite an L-DOPA dose exceeding 10-11 pills/day), ropinirole (5×2 mg and 4×1 mg, daily) and amantadine was added. They were on Wellbutryn for depression. There had been no history of GI disorders, and bowel function was said to be normal.\nThe individual lived at home with a spouse and 2 children. They had to be driven to work. Walking was unsteady. Their speech was nearly incomprehensible. Face was mask-like. No obvious tremors. Walking was hesitant. Subject had fallen (or tripped) several times previously and used a cane."}, "[7]": {"settings": "single 200 mg capsule Day 1, empty stomach"}}, "note": "“Also recorded” adds a separate entry of the source."}
{"substance": "squalamine", "values": [{"measurement": "PET/CT scan", "setting": "[1]; 100 mg/day with monthly cisplatin and 5-FU, February 2014", "value": "complete loss of all PET active masses"}, {"measurement": "cytology of the peritoneal fluid", "setting": "[1]; 100 mg/day, ongoing", "value": "remains negative for abnormal cells"}, {"measurement": "PET/CT scan", "setting": "[1]; 50 then 100 mg/day from late August 2013, with monthly cisplatin and 5-FU, early December 2013", "value": "dramatic reduction in PET intensity of all previously active cancer"}, {"measurement": "bowel response", "setting": "[2]; 200 mg cap at 9:15 A on Day 3 of codeine 30 mg/acetaminophen 300 mg, no stool since start, stool at 11:15 A", "value": "passed a large soft, well formed stool with normal urgency; also recorded: A sense of bowel relief was appreciated"}, {"measurement": "nausea and rectal fluid", "setting": "[2]; 200 mg cap at 9:15 A on Day 3 of codeine dosing", "value": "No nausea; also recorded: No clear rectal fluid"}, {"measurement": "watery diarrhea, time after dosing", "setting": "[3]; 200 mg cap on day 2", "value": 2, "unit": "h"}, {"measurement": "GI response to first dose", "setting": "[3]; 200 mg capsule Day 1, AM before breakfast, with L-DOPA", "value": "No nausea experienced nor watery discharge; also recorded: Passed several moist stools"}, {"measurement": "Observations", "setting": "[3]; 3 Weeks, 200 mg, from day 13 every other day", "value": "Mood seems to have improved; also recorded: Some shaking even after L-DOPA; also recorded: Bowels improved considerably; also recorded: Walking more comfortably, but still uneven; also recorded: Subject feels breathing is easier; also recorded: Articulation much improved"}, {"measurement": "resolution of constipation", "setting": "[3]; oral squalamine 200 mg regimen", "value": "Constipation resolved within several weeks"}, {"measurement": "decrease of tumor mass by MRI", "setting": "[4]; 100 mg from mid October 2013, with everolimus and temozolimide protocol, early December 2013", "value": "about 20%"}, {"measurement": "residual tumor volume relative to volume after the surgery/radiation", "setting": "[4]; 100 mg, beginning of February 2014", "value": 60, "unit": "%"}, {"measurement": "response to 25 mg capsule", "setting": "[5]; 25 mg capsule on Day 19", "value": "By Day 21 the previous symptoms of IBS were returning"}, {"measurement": "response to 50 mg capsule", "setting": "[5]; 50 mg capsule on Day 15", "value": "Neither nausea nor a discharge was experienced; also recorded: Sense of bowel quiet was experienced"}, {"measurement": "IBS status on maintenance dosing", "setting": "[5]; 50 mg orally every other day, at 10 months", "value": "no longer experiences symptoms of IBS; also recorded: Bowel movements are of normal consistency; also recorded: Sleep is no longer interrupted by urgency to defecate"}, {"measurement": "nausea had passed, time after dosing", "setting": "[5]; [7]", "value": "≤ 3.5", "unit": "h"}, {"measurement": "volume of clear discharge passed rectally", "setting": "[5]; [7]", "value": "about 200 ml"}, {"measurement": "vomiting, time after dosing", "setting": "[5]; [7]", "value": 3, "unit": "h"}, {"measurement": "nausea, time of onset after dosing", "setting": "[5]; single 200 mg capsule Day 1, empty stomach, person with mixed IBS", "value": "≤ 2", "unit": "h"}, {"measurement": "first stool passed", "setting": "[5]; single 200 mg capsule on Day 1", "value": "Day 4"}, {"measurement": "period of bowel quiet without cramping or urgency", "setting": "[5]; single 200 mg capsule on Day 1", "value": "Day 1 through Day 5"}, {"measurement": "return of usual GI symptoms", "setting": "[5]; single 200 mg capsule on Day 1", "value": "Day 8"}, {"measurement": "Observations", "setting": "[6]; Day 1, 100 mg cap", "value": "No obvious GI response. Continued"}, {"measurement": "Observations", "setting": "[6]; Day 21, 100 mg every other day, then began 200 mg every other day", "value": "articulation had become noticeably better; also recorded: improving and their energy level was increasing"}, {"measurement": "Observations", "setting": "[6]; Month 3, subject ran out of squalamine 2 weeks prior (cessation)", "value": "worst constipation they had ever remembered.”; also recorded: that he “was not feeling as good”"}, {"measurement": "Observations", "setting": "[6]; Month 5, 100 mg every other day raised to 200 mg every day at month 5.5", "value": "mg every day at month 5.5. No GI; also recorded: colleagues noted improvement. Took; also recorded: several falls which they attributed"}, {"measurement": "Observations", "setting": "[6]; Month 6, 200 mg every day", "value": "Individual could compensate being pulled; also recorded: told me that they felt their balance had improved; also recorded: Still had difficulty initiating; also recorded: No tremor; also recorded: Voice was of low; also recorded: volume. Face was still mask-like; also recorded: Once moving subject walked without; also recorded: Medication dosing had not changed"}]}
